# What was measured:
# wild-type HCT-116 cells = test: Cell proliferation (MTS), wild-type HCT-116; type: cell-based; conditions: Homo sapiens, 240 h; wild-type HCT-116, 10 days with compound, MTS reading; read-out: IC50 HCT116 WT
# Description: (§1) MTAP^-/- HCT-116 and wild-type HCT-116 cell strains were cultured in complete medium McCoy's 5A (Gibco, 16600082)/10% FBS (Gibco, 10099141C)/1% p/s (Gibco, 15140122) to evaluate the enhanced inhibitory effect of the compounds against the proliferation selectivity of MTAP^-/- HCT-116 cells. On day 0, MTAP^-/- HCT-116 cells or wild-type HCT-116 cells were added to a 96-well cell culture plate (Corning, 3599) at 100 cells/well, and the plate was incubated in an incubator at 37 °C with 5% CO2. The compound was diluted in a 3-fold gradient with DMSO (Sigma, D5879) (initial concentration: 20 µM, 3-fold dilution, 8 concentration points in total). On day 1, the compound was diluted to multiple concentration points, and the cells were treated separately and incubated in the incubator at 37 °C with 5% CO2 for another 10 days. On Day 11, 20 µL of MTS (CellTiter 96® AQueous One Solution Cell Proliferation Assay) (Promega, G3581) was added to each well. […] In the formula, Y represents the inhibition rate, X represents the logarithm of the compound concentration, Top represents the maximum response (the inhibition rate at the maximum compound concentration), Bottom represents the baseline response (the inhibition rate where the compound concentration was 0), Hill Slope represents the slope of the IC50 curve, and IC50 represents the half maximal inhibitory concentration. Table 1. IC50 (µM)
# MTAP^-/- HCT-116 cells = test: Cell proliferation (MTS), MTAP-/- HCT-116; type: cell-based, human; conditions: for Selectivity: HCT116 WT IC50 relative to HCT116 MTAP-/- IC50; for IC50: Homo sapiens, 240 h, MTAP-/- HCT-116, 10 days with compound, MTS reading, read-out: IC50 HCT116 MTAP-/-
# Text: The colon cancer cell strain HCT-116 (purchased from Nanjing Cobioer) was co-transfected with the gene editing tool CRISPR/Cas9 and sgRNA, and the MTAP^-/- HCT-116 cell strain with biallelic inactivation of MTAP was obtained by assays such as Western Blotting and Sanger sequencing. The MTAP^-/- HCT-116 cell strain was used for compound selectivity screening and evaluation based on the synergistic mechanism of MTAP deletion and PRMT5, including a symmetric dimethylarginine (SDMA) level test, a cell proliferation test, and the like.
# as §1, with “On” for “MTAP^-/- HCT-116 and wild-type HCT-116 cell strains were cultured in complete medium McCoy's 5A (Gibco, 16600082)/10% FBS (Gibco, 10099141C)/1% p/s (Gibco, 15140122) to evaluate the enhanced inhibitory effect of the compounds against the proliferation selectivity of MTAP^-/- HCT-116 cells. On”, “concentration.” for “concentration. Table 1. IC50 (µM)”
SMILES,IC50 (wild-type HCT-116 cells) [nM],IC50 (MTAP^-/- HCT-116 cells) [nM],Selectivity (MTAP^-/- HCT-116 cells)
"Cc1cc2nc(N)c3cnn(C)c3c2cc1C(=O)N(C)C1COc2cc(C#Cc3cnn(C4CC4)c3)ccc21 (stereo not drawn) [Compound 11, 4-amino-N-(6-((1-cyclopropyl-1H-pyrazol-4-yl)ethynyl)-2,3-dihydrobenzofuran-3-yl)-N,1,7-trimethyl-1H-pyrazolo[4,3-c]quinoline-8-carboxamide]",185,3,62
"CN(C(=O)c1cc2c(cc1F)nc(N)c1cnn(C)c12)C1COc2cc(C#Cc3cnn(C4CC4)c3)ccc21 (stereo not drawn) [Compound 12, 4-amino-N-(6-((1-cyclopropyl-1H-pyrazol-4-yl)ethynyl)-2,3-dihydrobenzofuran-3-yl)-7-fluoro-N,1-dimethyl-1H-pyrazolo[4,3-c]quinoline-8-carboxamide]",650,8,81
"CC(C)n1cc(C#Cc2ccc3c(c2)OCC3N(C)C(=O)c2cc3c(cc2F)nc(N)c2cnn(C)c23)cn1 (stereo not drawn) [Compound 13, 4-amino-7-fluoro-N-(6-((1-isopropyl-1H-pyrazol-4-yl)ethynyl)-2,3-dihydrobenzof uran-3-yl)-N,1-dimethyl-1H-pyrazolo[4,3-c]quinoline-8-carboxamide]",607,11,55
"CCn1cc(C#Cc2ccc3c(c2)OCC3N(C)C(=O)c2cc3c(cc2F)nc(N)c2cnn(C)c23)cn1 (stereo not drawn) [Compound 17, 4-amino-N-(6-((1-ethyl-1H-pyrazol-4-yl)ethynyl)-2,3-dihydrobenzofuran-3-yl)-7-f luoro-N,1-dimethyl-1H-pyrazolo[4,3-c]quinoline-8-carboxamide]",405,7,58
"CN(C(=O)c1cc2c(cc1Cl)nc(N)c1cnn(C)c12)C1COc2cc(C#Cc3ccn(C)n3)ccc21 (stereo not drawn) [Compound 18, 4-amino-7-chloro-N,1-dimethyl-N-(6-((1-methyl-1H-pyrazol-3-yl)ethynyl)-2,3-dihydrobenzofuran-3-yl)-1H-pyrazolo[4,3-c]quinoline-8-carboxamide]",159,3,53
"CC(C)n1cc(C#Cc2ccc3c(c2)OCC3N(C)C(=O)c2ccc3nc(N)c4cnn(C)c4c3c2)cn1 (stereo not drawn) [Compound 19, 4-amino-N-(6-((1-isopropyl-1H-pyrazol-4-yl)ethynyl)-2,3-dihydrobenzofuran-3-yl)-N,1-dimethyl-1H-pyrazolo[4,3-c]quinoline-8-carboxamide]",986,9.7,102
"CCn1cc(C#Cc2ccc3c(c2)OCC3N(C)C(=O)c2ccc3nc(N)c4cnn(C)c4c3c2)cn1 (stereo not drawn) [Compound 20, 4-amino-N-(6-((1-ethyl-1H-pyrazol-4-yl)ethynyl)-2,3-dihydrobenzofuran-3-yl)-N, 1-dimethyl-1H-pyrazolo[4,3-c]quinoline-8-carboxamide]",948,9.8,97
"CN(C(=O)c1cc2c(cc1F)nc(N)c1cnn(C)c12)C1COc2cc(C#Cc3ccn(C)n3)ccc21 (stereo not drawn) [Compound 21, 4-amino-7-fluoro-N,1-dimethyl-N-(6-((1-methyl-1H-pyrazol-3-yl)ethynyl)-2,3-dihydrobenzofuran-3-yl)-1H-pyrazolo[4,3-c]quinoline-8-carboxamide]",365,7,52
"Cc1c(C#Cc2ccc3c(c2)OCC3N(C)C(=O)c2cc3c(cc2Cl)nc(N)c2cnn(C)c23)cnn1C (stereo not drawn) [Compound 22, 4-amino-7-chloro-N-(6-((1,5-dimethyl-1H-pyrazol-4-yl)ethynyl)-2,3-dihydrobenzofuran-3-yl)-N,1-dimethyl-1H-pyrazolo[4,3-c]quinoline-8-carboxamide]",95,1.9,50
"Cc1c(C#Cc2ccc3c(c2)OCC3N(C)C(=O)c2cc3c(cc2F)nc(N)c2cnn(C)c23)cnn1C (stereo not drawn) [Compound 23, 4-amino-N-(6-((1,5-dimethyl-1H-pyrazol-4-yl)ethynyl)-2,3-dihydrobenzofuran-3-yl)-7-fluoro-N,1-dimethyl-1H-pyrazolo[4,3-c]quinoline-8-carboxamide]",307,4,77
"CN(C(=O)c1cc2c(cc1F)nc(N)c1cnn(C)c12)C1COc2cc(C#Cc3cn(C)nc3Cl)ccc21 (stereo not drawn) [Compound 24, 4-amino-N-(6-((3-chloro-1-methyl-1H-pyrazol-4-yl)ethynyl)-2,3-dihydrobenzofuran-3-yl)-7-fluoro-N,1-dimethyl-1H-pyrazolo[4,3-c]quinoline-8-carboxamide]",115,1.9,61
"Cc1nn(C)cc1C#Cc1ccc2c(c1)OCC2N(C)C(=O)c1cc2c(cc1F)nc(N)c1cnn(C)c12 (stereo not drawn) [Compound 25, 4-amino-N-(6-((1,3-dimethyl-1H-pyrazol-4-yl)ethynyl)-2,3-dihydrobenzofuran-3-yl)-7-fluoro-N,1-dimethyl-1H-pyrazolo[4,3-c]quinoline-8-carboxamide]",471,4.7,100
"CCN(C(=O)c1cc2c(cc1F)nc(N)c1cnn(C)c12)C1COc2cc(C#Cc3cnn(C)c3)ccc21 (stereo not drawn) [Compound 27, 4-amino-N-ethyl-7-fluoro-1-methyl-N-(6-((1-methyl-1H-pyrazol-4-yl)ethynyl)-2,3-dihydrobenzofuran-3-yl)-1H-pyrazolo[4,3-c]quinoline-8-carboxamide]",185,3.2,58
"Cc1c(C#Cc2ccc3c(c2)OCC3N(C)C(=O)c2ccc3nc(N)c4cnn(C)c4c3c2)cnn1C (stereo not drawn) [Compound 29, 4-amino-N-(6-((1,5-dimethyl-1H-pyrazol-4-yl)ethynyl)-2,3-dihydrobenzofuran-3-yl)-N,1-dimethyl-1H-pyrazolo[4,3-c]quinoline-8-carboxamide]",1500,9.8,153

# Continued, in another order:
IC50 (wild-type HCT-116 cells) [nM],IC50 (MTAP^-/- HCT-116 cells) [nM],SMILES,Selectivity (MTAP^-/- HCT-116 cells)
28,0.5,"Cc1cc2nc(N)c3cnn(C)c3c2cc1C(=O)N(C)[C@@H]1COc2cc(C#Cc3cnn(C)c3)ccc21 [Compound 10A, (S)-4-amino-N,1,7-trimethyl-N-(6-((1-methyl-1H-pyrazol-4-yl)ethynyl)-2,3-dihydrobenzofuran-3-yl)-1H-pyrazolo[4,3-c]quinoline-8-carboxamide]",56
1300,8.7,"CC(C)n1cc(C#Cc2ccc3c(c2)OC[C@H]3N(C)C(=O)c2ccc3nc(N)c4cnn(C)c4c3c2)cn1 [Compound 19A, (S)-4-amino-N-(6-((1-isopropyl-1H-pyrazol-4-yl)ethynyl)-2,3-dihydrobenzofuran-3-yl)-N,1-dimethyl-1H-pyrazolo[4,3-c]quinoline-8-carboxamide]",149
1040,6.1,"CCn1cc(C#Cc2ccc3c(c2)OC[C@H]3N(C)C(=O)c2ccc3nc(N)c4cnn(C)c4c3c2)cn1 [Compound 20A, (S)-4-amino-N-(6-((1-ethyl-1H-pyrazol-4-yl)ethynyl)-2,3-dihydrobenzofuran-3-yl)-N,1-dimethyl-1H-pyrazolo[4,3-c]quinoline-8-carboxamide]",170
233,2.7,"CN(C(=O)c1cc2c(cc1F)nc(N)c1cnn(C)c12)[C@@H]1COc2cc(C#Cc3ccn(C)n3)ccc21 [Compound 21A, (S)-4-amino-7-fluoro-N,1-dimethyl-N-(6-((1-methyl-1H-pyrazol-3-yl)ethynyl)-2,3-dihydrobenzofuran-3-yl)-1H-pyrazolo[4,3-c]quinoline-8-carboxamide]",86.3
55,1,"Cc1c(C#Cc2ccc3c(c2)OC[C@H]3N(C)C(=O)c2cc3c(cc2Cl)nc(N)c2cnn(C)c23)cnn1C [Compound 22A, (S)-4-amino-7-chloro-N-(6-((1,5-dimethyl-1H-pyrazol-4-yl)ethynyl)-2,3-dihydrobenzofuran-3-yl)-N,1-dimethyl-1H-pyrazolo[4,3-c]quinoline-8-carboxamide]",55
